{
  "source": "ChEMBL document CHEMBL3046756",
  "about": "“Synthesis, anti-inflammatory, and structure antioxidant activity relationship of novel 4-quinazoline” (Med Chem Res, 2013)",
  "type_in_all_cases": "functional",
  "key": {"[1]": {"system": "Radical scavenging activity", "assay": "Antioxidant activity assessed as DPPH free radical scavenging activity at 0.06 mg/ml after 5 to 60 min by spectrophotometric analysis"}, "[2]": {"assay": "Antioxidant activity assessed as inhibition of linoleic acid peroxidation at 100 mg/l after 24 hr by spectrophotometric analysis"}, "[3]": {"assay": "Antioxidant activity assessed as reduction of Fe3+ to Fe2+ at 20 to 140 ug/ml after 30 min by spectrophotometric analysis"}, "Rattus norvegicus [4]": {"system": "Rattus norvegicus", "assay": "Anti-inflammatory activity in Wistar Rattus norvegicus (rat) assessed as inhibition of carrageenan-induced paw edema at 30 mg/kg, po administered 30 min prior to carrageenan challenge measured at 30 min post carrageenan challenge relative to untreated control"}, "Rattus norvegicus [5]": {"system": "Rattus norvegicus", "assay": "Effect on LDH level in Wistar Rattus norvegicus (rat) serum at 30 mg/kg, po qd after 10 days (reference value: 249.89 +/- 13.26 U/I)"}, "Rattus norvegicus [6]": {"system": "Rattus norvegicus", "assay": "Anti-inflammatory activity in Wistar Rattus norvegicus (rat) assessed as inhibition of carrageenan-induced paw edema at 30 mg/kg, po administered 30 min prior to carrageenan challenge measured at 180 min relative to untreated control"}, "Rattus norvegicus [7]": {"system": "Rattus norvegicus", "assay": "Effect on glutathione peroxidase level in Wistar Rattus norvegicus (rat) liver measured GSH oxidized per min per mg of protein at 30 mg/kg, po after 10 days (reference value: 47.47 +/- 3.86 mmol)"}, "Rattus norvegicus [8]": {"system": "Rattus norvegicus", "assay": "Effect on GST level in Wistar Rattus norvegicus (rat) liver measured CDNB conjugated per min per mg of protein at 30 mg/kg, po after 10 days (reference value: 0.86 +/- 0.08 mmol)"}, "Rattus norvegicus [9]": {"system": "Rattus norvegicus", "assay": "Anti-inflammatory activity in Wistar Rattus norvegicus (rat) assessed as inhibition of carrageenan-induced paw edema at 30 mg/kg, po administered 30 min prior to carrageenan challenge measured at 60 min relative to untreated control"}, "Rattus norvegicus [10]": {"system": "Rattus norvegicus", "assay": "Effect on GSH level in Wistar Rattus norvegicus (rat) liver measured per mg of protein at 30 mg/kg, po after 10 days (reference value: 1.84 +/- 0.092 mg)"}, "Rattus norvegicus [11]": {"system": "Rattus norvegicus", "assay": "Effect on glutathione reductase level in Wistar Rattus norvegicus (rat) liver measured NADPH oxidized per min per mg of protein at 30 mg/kg, po after 10 days (reference value: 4.19 +/ 0.42 nmol)"}, "Rattus norvegicus [12]": {"system": "Rattus norvegicus", "assay": "Effect on ALP level in Wistar Rattus norvegicus (rat) serum at 30 mg/kg, po qd after 10 days (reference value: 39.5 +/- 3.86 U/I)"}, "Rattus norvegicus [13]": {"system": "Rattus norvegicus", "assay": "Effect on TBARS level in Wistar Rattus norvegicus (rat) serum at 30 mg/kg, po qd after 10 days (reference value: 0.82 +/- 0.073 nmol/ml)"}, "Rattus norvegicus [14]": {"system": "Rattus norvegicus", "assay": "Anti-inflammatory activity in Wistar Rattus norvegicus (rat) assessed as inhibition of carrageenan-induced paw edema at 30 mg/kg, po administered 30 min prior to carrageenan challenge measured at 120 min relative to untreated control"}, "Rattus norvegicus [15]": {"system": "Rattus norvegicus", "assay": "Effect on SGOT level in Wistar Rattus norvegicus (rat) at 30 mg/kg, po qd after 10 days (reference value: 145.50 +/- 13.86 U/I)"}, "Rattus norvegicus [16]": {"system": "Rattus norvegicus", "assay": "Effect on SGPT level in Wistar Rattus norvegicus (rat) at 30 mg/kg, po qd after 10 days (reference value: 38.77 +/- 4.25 U/I)"}, "Rattus norvegicus [17]": {"system": "Rattus norvegicus", "assay": "Effect on gamma-glutamyl transferase level in Wistar Rattus norvegicus (rat) serum at 30 mg/kg, po qd after 10 days (reference value: 0.57 +/- 0.04 U/I)"}, "Rattus norvegicus [18]": {"system": "Rattus norvegicus", "assay": "Anti-inflammatory activity in Wistar Rattus norvegicus (rat) assessed as inhibition of carrageenan-induced paw edema at 30 mg/kg, po administered 30 min prior to carrageenan challenge measured at 90 min relative to untreated control"}, "Rattus norvegicus [19]": {"system": "Rattus norvegicus", "assay": "Antipyretic activity in Wistar Rattus norvegicus (rat) assessed as decrease in Brewer's yeast solution-induced hyperthermia at 20 mg/kg, po measured after 3 hr (reference value: 36.8 +/- 1.9 degC)"}, "Rattus norvegicus [20]": {"system": "Rattus norvegicus", "assay": "Antipyretic activity in Wistar Rattus norvegicus (rat) assessed as decrease in Brewer's yeast solution-induced hyperthermia at 20 mg/kg, po measured after 2 hr (reference value: 37 +/- 1.7 degC)"}, "Rattus norvegicus [21]": {"system": "Rattus norvegicus", "assay": "Antipyretic activity in Wistar Rattus norvegicus (rat) assessed as decrease in Brewer's yeast solution-induced hyperthermia at 20 mg/kg, po measured after 1 hr (reference value: 37 +/- 3.55 degC)"}},
  "note": "Activity calls are given as the source filed them. No cut-off for these calls is given here.",
  "data": [
    {"smiles": "Cc1c(C)c2c(c(C)c1O)CCC(C)(C(=O)O)O2", "note": "(centres undefined)", "values": [
      {"measurement": "Activity", "setting": "[1]", "result": "Active"},
      {"measurement": "inhibition", "setting": "[2]", "result": "Active"}
    ]},
    {"smiles": "Cc1c(C)c2c(c(C)c1O)CC[C@@](C)(CCC[C@H](C)CCC[C@H](C)CCCC(C)C)O2", "values": [
      {"measurement": "inhibition", "setting": "[2]", "result": "Active"},
      {"measurement": "Activity", "setting": "[3]", "result": "Active"}
    ]},
    {"smiles": "Cc1cc(C(C)(C)C)c(O)c(C(C)(C)C)c1", "values": [
      {"measurement": "inhibition", "setting": "[2]", "result": "Active"},
      {"measurement": "Activity", "setting": "[3]", "result": "Active"}
    ]},
    {"smiles": "O=C([O-])Cc1ccccc1Nc1c(Cl)cccc1Cl.[Na+]", "note": "[DICLOFENAC SODIUM]", "values": [
      {"measurement": "inhibition in vivo at 30 mg/kg", "setting": "Rattus norvegicus [4]", "result": 41.3, "unit": "%"},
      {"measurement": "Activity", "setting": "Rattus norvegicus [5]", "result": 320.69, "unit": "U/L"},
      {"measurement": "inhibition in vivo at 30 mg/kg", "setting": "Rattus norvegicus [6]", "result": 100, "unit": "%"},
      {"measurement": "Activity", "setting": "Rattus norvegicus [7]", "result": 32.09, "unit": "mmol"},
      {"measurement": "Activity", "setting": "Rattus norvegicus [8]", "result": 0.63, "unit": "mmol"},
      {"measurement": "inhibition in vivo at 30 mg/kg", "setting": "Rattus norvegicus [9]", "result": 82, "unit": "%"},
      {"measurement": "Activity", "setting": "Rattus norvegicus [10]", "result": 0.79, "unit": "mg"},
      {"measurement": "Activity", "setting": "Rattus norvegicus [11]", "result": 3.28, "unit": "nmol"},
      {"measurement": "Activity", "setting": "Rattus norvegicus [12]", "result": 75.25, "unit": "U/L"},
      {"measurement": "Activity", "setting": "Rattus norvegicus [13]", "result": 1.41, "unit": "nmol/mL"},
      {"measurement": "inhibition in vivo at 30 mg/kg", "setting": "Rattus norvegicus [14]", "result": 92.8, "unit": "%"},
      {"measurement": "Activity", "setting": "Rattus norvegicus [15]", "result": 201.27, "unit": "U/L"},
      {"measurement": "Activity", "setting": "Rattus norvegicus [16]", "result": 84.43, "unit": "U/L"},
      {"measurement": "Activity", "setting": "Rattus norvegicus [17]", "result": 1.37, "unit": "U/L"},
      {"measurement": "inhibition in vivo at 30 mg/kg", "setting": "Rattus norvegicus [18]", "result": 86.3, "unit": "%"}
    ]},
    {"smiles": "CC(=O)Nc1ccc(O)cc1", "note": "[ACETAMINOPHEN]", "values": [
      {"measurement": "T", "setting": "Rattus norvegicus [19]", "result": 36.4, "unit": "°C"},
      {"measurement": "T", "setting": "Rattus norvegicus [20]", "result": 36.8, "unit": "°C"},
      {"measurement": "T", "setting": "Rattus norvegicus [21]", "result": 37, "unit": "°C"}
    ]}
  ]
}
